Data published in paper PMC5755735, “Discovery of indolylpiperazinylpyrimidines with dual-target profiles at adenosine A2A and dopamine D2 receptors for Parkinson's disease treatment” (PLoS ONE, 2018).

Assays:
[1] = tested on: parkin-null flies; test: parkin-null Drosophila model of PD (climbing assay, DA neuron count); assay type: in vivo; details: 50 μM
From the text: (§1) Parkin-null (pk-/-) flies were first used to evaluate compound 5. […] (Fig 8B), the cluster used widely in the parkin-null flies. Compound 5 was subsequently examined for its ability to ameliorate LRRK2 G2019S-induced PD phenotypes. […] Taken together, these findings indicate that compound 5 acts as a suppressor of DA neuron dysfunction in two Drosophila genetic PD models—one with parkin-null which represents recessive PD, and one with transgene LRRK2 G2019S-mutant, which represents dominant PD.
(§2) Fly lines for 24B-Gal4 (muscle specific), ddc-Gal4 (dopaminergic neuron-specific), elav-Gal4 (pan-neuronal), UAS-mito-GFP, and UAS-dAMPK-KA were purchased from Bloomington Drosophila Stock Center. The parkin-null mutant flies were kind gifts from Chung J. and Cho K. S. (Korea Advanced Institute of Science and Technology, Daejeon, Korea). […] After a 2-hour recovery period from CO2 exposure, flies were gently tapped to the bottom of the column, and the number of flies that reached the top of column at 1 min was counted. […] DA neurons were quantified according to previously published method. The size of mito-GFP puncta was measured using the ImageJ program and expressed as mean ± SD (n ≥ 10 DA neurons per experimental group). Statistical significance for all the quantitative data obtained were analyzed using one-way ANOVA with Tukey’s test HSD post hoc test (*p < 0.05, **p < 0.01).

[2] = tested on: LRRK2 G2019S-expressing flies; test: LRRK2 G2019S Drosophila model of PD (climbing assay, DA neuron count); assay type: in vivo
From the text: as §1, §2

[3] = molecular target: T1, human A2B receptors expressed in CHO cells (Homo sapiens, UniProt P29275); test: inhibition of NECA-stimulated adenylyl cyclase activity at hA2B
T1 sequence (P29275 1-332): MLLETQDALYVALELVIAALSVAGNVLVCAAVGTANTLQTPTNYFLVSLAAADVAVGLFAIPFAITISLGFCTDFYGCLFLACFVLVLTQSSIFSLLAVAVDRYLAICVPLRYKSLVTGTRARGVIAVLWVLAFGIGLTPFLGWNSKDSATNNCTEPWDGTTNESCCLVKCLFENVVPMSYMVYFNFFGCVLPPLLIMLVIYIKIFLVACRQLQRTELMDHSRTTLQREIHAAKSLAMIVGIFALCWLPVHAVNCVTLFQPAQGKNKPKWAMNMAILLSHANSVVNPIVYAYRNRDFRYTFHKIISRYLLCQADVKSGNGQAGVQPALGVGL
Procedure: For measurement of adenylyl cyclase activity in the hA2B receptors, one-step centrifugation procedure was used; the homogenate was sedimented for 30 min at 54,000 g. The so-obtained crude membrane pellet was re-suspended in 50 mM Tris/HCl, pH 7.4 and used for the adenylyl cyclase assay immediately.
The membranes were incubated with about 150,000 cpm of [α-^32P]adenosine triphosphate ([α-^32P]ATP) and test compounds in different concentrations for 20 min. A non-linear regression analysis was applied to calculate the IC50 of the adenylyl cyclase activity assay. From the IC50 values, Ki values were then calculated using the Cheng and Prusoff equation [46].

Row | Structure (SMILES) | DA neuronal count (PPL1 cluster) [1] | climbing score ([1]; compared with untreated mutant flies) | climbing score ([2]; 50 μM and 100 μM) | DA neuronal count ([2]; LRRK2 G2019S-expressing flies) | Ki [3] [µM]
1 | Cc1cc(C)nc(N2CCN(C(=O)c3c[nH]c4ccccc34)CC2)n1 [Compound 5, 3‐[4‐(4,6‐Dimethylpyrimidin‐2‐yl)piperazine‐1‐carbonyl]‐1H‐indole] | reduction of DA neuron loss in the PPL1 cluster | improvement in climbing scores | improvement in climbing (in a concentration-dependent manner) | mitigation of DA neuron degeneration | 
2 | Cc1cc(C)nc(N2CCN(C(=O)Cc3c(C)[nH]c4ccccc34)CC2)n1 [Compound 6, 1‐[4‐(4,6‐Dimethylpyrimidin‐2‐yl)piperazin‐1‐yl]‐2‐(2‐methyl‐1H‐indol‐3‐yl)ethan‐1‐one] |  |  |  |  | > 20
